Results from article PMC7269146, “Jingzhaotoxin-X, a gating modifier of Kv4.2 and Kv4.3 potassium channels purified from the venom of the Chinese tarantula Chilobrachys jingzhao” (The Journal of Venomous Animals and Toxins Including …, 2020).
Where a SMILES comes first, the peptide text is derived from it. Bridges are numbered along the chain shown (N, C = ends).

How the values were obtained:
[1] = rotarod performance test in mice; type: in vivo, mouse (male C57BL/6); conditions: 40 nmol/kg, n = 8; for time on accelerating rotarod: 1 h following treatment, cutoff 300 s
Description: In the present study, male C57BL/6 mice weighing 20-25 g were utilized. This study was performed following the Guide for the Care and Use of Laboratory Animals released by the United States National Institutes of Health (US NIH). Our study protocol was approved by the Animal Experiments Ethics Committee at Central Southern University (No. 2018-2-6). Each operation was performed under isoflurane-induced anesthesia to reduce pain and minimize animal suffering. Lumbar puncture was also conducted for intrathecal injection, as described previously. Next, the effect of JZTX-X on nociception was evaluated by assessing the behaviors during the mechanical hyperalgesia process. The JZTX-X-induced mechanical hyperalgesia was investigated by two experiments via various administration routes, including intrathecal and intraplantar injections. Then, animals were challenged via intrathecal (10 µL) or intraplantar (20 µL) injection of JZTX-X (40 nmol/kg). The control group was given a physiological solution, which contained 0.9% NaCl, […].
A rotarod accelerator treadmill (Med Associates Inc., St. Albans, VT) was utilized for rotarod performance tests, so as to determine […] motor function as previously described. Motor learning was also carried out by rotarod tests for evaluating the mice’s capacity to stay on the accelerating rotating drum. In JZTX-X- and saline- groups, all animals were acclimated for 30 min within the testing room, and placed for 300 s onto the rotarod that accelerated from 4 to 40 rpm. In addition, the latency time for animals falling from the rod was calculated before and after toxin injection, from the beginning of acceleration to falling onto the drum, and the maximum cutoff time was 300 s.

Ito potassium channels = assay: voltage-clamp, Ito potassium currents in rat DRG neurons; type: cell-based
Description: An EPC-10 patch-clamp amplifier (HEKA, Germany) was employed to record the potassium currents at the configuration of whole-cell patch-clamp under an ambient temperature of 22-25°C. The resistance was 2.0-3.0 MΩ when the recording pipette contained a full volume of internal solution (supplemented with 140 mM KCl, 10 mM HEPES, 2.5 mM MgCl2, 5 mM ATP and 11 mM EGTA). KOH was utilized to adjust the pH to 7.2, while sucrose was employed to adjust the osmolarity to 310 mOsm/L. The culture medium was replaced with an external solution containing 150 mM NaCl, 2.5 mM CaCl2, 10 mM HEPES, 2 mM MgCl2, 5 mM KCl, and 10 mM D-glucose. Similarly, sucrose and NaOH were applied to adjust the osmolarity to 330 mOsm/L and pH to 7.4. […] The series resistance was maintained at about 5 MΩ, with 65-70% compensation. Finally, the leakage currents and linear capacitance were subtracted digitally according to the P/4 protocol. […]
(§1) Firstly, the effects of JZTX-X on the isoforms of potassium channels (including Kv1.1-1.3, Kv2.1, as well as Kv4.2-4.3) contained within the X. laevis oocytes were investigated through the microelectrode voltage-clamp approach. […] We also determined the effects of JZTX-X on Ito potassium channels in rat DRG neurons; those current amplitudes were inhibited by 54.4±6.8% when 500 nM JZTX-X was applied (Fig. 3K, n = 5).

Kv2.1 = assay: microelectrode voltage-clamp, Xenopus laevis oocytes, Kv2.1; type: cell-based; conditions: 10 μM, 300-ms depolarization to +20 mV from -90 mV, pH 7.5, 19-23°C, n = 3
Description: Briefly, plasmids were linearized, and transcription was carried out according to the standardized protocol. Afterwards, the capped cRNAs that encoded the related ion channels were prepared. To conduct transcription in vitro, firstly, NotL was utilized to linearize plasmids pCI that contained both Kv1.1 (Accession: NM_010595.3) and Kv2.1 (Accession: AF026005.1), whereas SphI was adopted to linearize plasmid PcDNA3 containing Kv1.2 (Accession: NM_012970.3) gene. […] Thereafter, the linearized plasmids were used as the templates to synthesize cRNAs in vitro using the large-scale T7 mMESSAGE mMACHINE transcription kit (Ambion, USA).
A mature female X. laevis was placed on the ice for anesthesia, and then the Xenopus laevis oocytes at stage IV-VI were extracted. Subsequently, those extracted oocytes were treated by collagenase (1 mg/mL) contained within the calcium-depleted ND96 solution (containing 96 mM NaCl, 10 mM HEPES, 1 mM MgCl2, and 2 mM KCl) for defolliculation. […]
as §1

CC(C)C[C@@H]1NC(=O)[C@H](CCCCN)NC(=O)[C@H](Cc2ccc(O)cc2)NC(=O)[C@@H]2CSSC[C@@H]3NC(=O)[C@H](Cc4ccc(O)cc4)NC(=O)[C@H](Cc4ccccc4)NC(=O)CNC(=O)[C@H](C)NC(=O)[C@H](CSSC[C@H](NC(=O)[C@@H](N)CC(C)C)C(=O)N[C@@H](CO)C(=O)N[C@@H](CCCNC(=N)N)C(=O)N[C@@H](CCC(=O)O)C(=O)NCC(=O)N[C@@H](CCC(=O)O)C(=O)N[C@@H](Cc4ccccc4)C(=O)N2)NC(=O)[C@H](CSSC[C@@H](C(=O)N[C@@H](Cc2ccc(O)cc2)C(=O)N[C@@H](CCCNC(=N)N)C(=O)N[C@@H](CC(N)=O)C(=O)O)NC(=O)[C@H](Cc2c[nH]cn2)NC(=O)[C@H](CC(C)C)NC(=O)[C@H](C(C)C)NC(=O)[C@H](Cc2ccccc2)NC(=O)[C@H](C)NC(=O)[C@H](CCCCN)NC3=O)NC(=O)[C@H](CCCCN)NC(=O)[C@H](CCCNC(=N)N)NC1=O [JZTX-X, Jingzhaotoxin-X] (H-LCSREGEFCYKLRKCCAGFYCKAFVLHCYRN-OH; disulfide 2-16, 9-21, 15-28; N-terminus assumed)
effect on motor coordination ([1]; intrathecal and intraplantar): made no difference to the motor coordination in mice | time on accelerating rotarod ([1]; intraplantar, vehicle 118.8 ± 9.8 s): 113.4 ± 8.3 s | time on accelerating rotarod ([1]; intrathecal, vehicle 117.9 ± 7.6 s): 117.5 ± 7.8 s | inhibition of Ito current (Ito potassium channels; 500 nM, n = 5): 54.4±6.8% | IC50 (Ito potassium channels; Hill equation fit, n = 6): 386 nM | inhibition of Kv2.1 current (Kv2.1): less than 5%
